Data set [1] in a line: GI Exposure PK in Mice. It is filed as in vivo. As to conditions: mouse, male BalbC mice, oral dose of 5 mg/kg. Here is the method: The test compound was wetted with ˜0.025% of Tween-20 and triturated in a mortar and pestle, then slowly 0.5% of methyl cellulose was added to make up the final volume to 7.25 mL. The BalbC test animals were subjected to anesthesia induced with a mixture of 5% isoflurane and 0.8-1.5 L/min 02 gas flow. The formulated test compound was then dosed via oral gavage. At various time points (0.5, 1, 2, 4, 6 and 8 h) blood samples (˜100 μL) were collected from portal vein (pre-hepatic) followed by cardiac puncture (circulating) into tubes containing 2% w/v aqueous K2 EDTA solution as per time points. Post blood sampling, the gastro intestine (GI) tissues were collected from the mice at the same time points. The GI tissue was dissected into different parts as duodenum, jejunum, ileum and colon. The separated tissues were washed by flushing with PBS via oral gavage needle to remove GI content. Post collection all the tissues were blotted, weighed and homogenized with PBS buffer (pH 7.4). The blood samples were immediately placed on ice and centrifuged within 30 min at 4° C. for 5 min at 8,000 rpm to obtain plasma. Plasma was transferred by pipettes to pre-labelled centrifuge tubes and immediately transferred to −80° C. until bioanalysis. Tissue samples were placed in pre-labelled container and all samples were kept in −80° C. until homogenized. The homogenate was stored immediately in −80° C. until bioanalysis was conducted. Study samples were thawed to room temperature and 50 μL of sample was aliquoted into pre-labeled vials. To these was added 400 μL of 100% acetonitrile containing an IS (100 ng/mL; warfarin, tolbutamide and loperamide). The vials were mixed well, vortexed for 5 min, followed by centrifugation for 5 min at 14000 rpm at 4° C. The supernatant was separated and same was injected on LC-MS/MS. Plasma and GI tissue levels of test compound were determined by LC-MS analysis using a standard curve in the text matrix. Individual concentration-time data were analyzed using Phoenix WinNonlin (Version 8.1) by the non-compartmental analysis (NCA) method.

In data set [2] the target is JAK3 (a.a. 781-1124) (Homo sapiens (Human), UniProt P52333). The data set can be described thus: JAK3 enzyme activity assay (SRCtide phosphorylation, Caliper). It is filed as biochemical. As to conditions: 1 uM ATP; read-out: JAK3 Inhibition IC50.
The subject of data set [3] is IL-12 stimulated STAT4 phosphorylation on Tyr693 (JAK2/TYK2). The data set can be described thus: JAK2/TYK2 cellular target modulation: IL-12 stimulated phospho-STAT4 in PBMC. It is filed as cell-based. As to conditions: human PBMC, IL-12 1.7 ng/ml; read-out: IL12-STAT4 IC50. The method, boiled down: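 Thawed human PBMC (200,000/well, RPMI/10% FBS) were preincubated with compound for 1 h at 37 °C, added from 10× stocks in 1% DMSO. Stimulation and read-out: IL-2 25 ng/ml, 5 min, pSTAT5 by MSD; IL-12 1.7 ng/ml, 25 min, pSTAT4 by MSD; IFNγ 10 ng/ml, 10 min, pSTAT1 by sandwich ELISA.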

Setting [4] is: portal vein plasma (pre-hepatic), Portal plasma.

Bounds are passed on as bounds.

Sequence of JAK3 (a.a. 781-1124) (P52333 781-1124): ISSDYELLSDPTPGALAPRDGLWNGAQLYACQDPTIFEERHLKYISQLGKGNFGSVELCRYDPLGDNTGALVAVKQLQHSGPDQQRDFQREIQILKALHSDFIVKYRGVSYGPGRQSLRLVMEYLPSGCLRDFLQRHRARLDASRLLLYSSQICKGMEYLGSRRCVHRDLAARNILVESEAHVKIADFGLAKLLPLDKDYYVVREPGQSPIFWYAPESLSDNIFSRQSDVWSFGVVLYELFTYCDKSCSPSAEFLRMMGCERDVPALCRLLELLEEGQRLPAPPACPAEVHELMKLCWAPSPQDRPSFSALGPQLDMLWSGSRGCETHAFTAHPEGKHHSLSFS

As to `CNC(=O)c1coc(-c2cnc3[nH]ccc3c2N[C@@H]2C[C@H](C)CN(C(=O)CC#N)C2)n1` [Example 31, 2-(4-(((3R,5S)-1-(2-cyanoacetyl)-5-methylpiperidin-3-yl)amino)-1H-pyrrolo[2,3-b]pyridin-5-yl)-N-methyloxazole-4-carboxamide], the Tmax in data set [1] (circulating plasma (cardiac puncture), Circulating plasma) is 4 h; in data set [1] (setting [4]), 0.5 h; in data set [1] (Colon) it was 4 h; in data set [1] (Duodenum) it was 0.5 h; in data set [1] (Ileum), 2 h; in data set [1] (Jejunum), 0.5 h. The Cmax stood at 9.2 ng/mL in data set [1] (circulating plasma (cardiac puncture), Circulating plasma, two of three subjects, third BLQ); 11.3 ng/mL in data set [1] (setting [4]); 1290 ng/g in data set [1] (Colon); 2880 ng/g in data set [1] (Duodenum); 43800 ng/g in data set [1] (Ileum); 37000 ng/g in data set [1] (Jejunum). Also, the AUC was 17.2 ng·h/mL in data set [1] (setting [4]); 6820 ng·h/mL in data set [1] (Colon); 4660 ng·h/mL in data set [1] (Duodenum); 82500 ng·h/mL in data set [1] (Ileum); 57400 ng·h/mL in data set [1] (Jejunum). For the same compound, the IC50 was at most 10 nM in data set [2] and above 1000 nM in data set [3].
